The values below come from article PMC5382548 (Scientific Reports, 2015).

Each structure is given as a SMILES string. pIC50: −log10 of the molar value. Where “and” joins values, the source holds several entries; their conditions need not be identical. Equal values may be shown once.

The test system of one assay is KRAS21R G4. As to the kind of experiment: Spectrofluorimetric titration with KRAS21R G4. Particulars: for Apparent association constant Ka (KRAS21R): ligand 1 μM, K-cacodylate pH 7.4, 60 mM K+, 25°C; for Hill constant h (KRAS21R): one-site saturation binding Hill slope model. The assay is classed as binding, human. On the procedure:
To characterize the binding of IQc to DNA structures, spectrofluorimetric titration assays were performed with the non-substituted (2a), mono-alkyldiamine (2d) and di-alkyldiamine (3e) derivatives using un-labelled KRAS21R G4 and 26ds-DNA. […] Their fluorescence intensity was proportional to concentration up to 10 μM. […] The fluorescence titration data (Figure 4) was fitted to the Scatchard model[25] (Figure 4, insets). […] Scatchard plots of 2d and 3e (Figure 4b–c, insets) are all concave-down nonlinear curves, which may denote different positive cooperative binding sites in G4, with more than one equivalent and non-independent binding sites. […] Therefore, association constants for 2d and 3e were obtained from the one-site saturation binding Hill slope model (Figure 4b–c). These are apparent binding constants, i.e. they are macroscopic Ka which reflect the total binding.
Figure 4 Fluorescence data of (a) 2a, (b) 2d, and (c) 3e (1 μM) in K-cacodylate buffer (pH 7.4, containing 60 mM K^+) at 25°C, titrated with KRAS21R and HT21 G4s, and 26ds, fitted to the saturation binding equations and Scatchard model (insets).
Fluorescence data were collected with a λex of 290 nm and a λem around 475 nm for 2d and 3e, and a λex of 275 nm and a λem around 460 for 2a. Test compounds were prepared as 1 mM in HPLC-grade water (10% DMSO) stock solutions. The rest of the dilutions were performed using K-cacodylate buffer (pH = 7.4, containing 60 mM K^+). The G4 single-strand oligonucleotide sequences were initially diluted from the storage solution (100 μM) with K-cacodylate, to a stock solution at 25 μM. The titration data were obtained by adding aliquots of previously annealed G4 (heating to 95°C for 10 min, followed by slow cooling to RT) to a solution of the indolo[3,2-c]quinoline ligand (1 μM) in K-cacocylate buffer at 25°C (additional details in Supplementary Information).
Figure S7. Fluorescence titrations of 1 μM indolo[3,2-c]quinoline 2d (1µM) with KRAS21R G4 and 26ds DNA in K-cacodylate buffer pH 7.4, containing 60 mM K+ at 25 °C.
Concentration of DNA increase from the top to the bottom (grey lines) Excitation […]
Figure S8. Fluorescence titrations of 1 μM indolo[3,2-c]quinoline 3e (1µM) with KRAS21R […]
The titration data obtained were used to construct Scatchard plots with the concentration of bound and free ligand (Cb and Cf, respectively). […]
number of moles of ligand bound to 1 mol of G4 (r = Cb/CDNA) were calculated.
Saturation binding isotherms were represented as Scatchard plots, by plotting r/Cf versus r and evaluated according to the model of McGhee and von Hippel. Dissociation constants were determined by fitting the titration experimental data to one-site saturation binding equation or to one-site saturation binding to the Hill slope equation supplied with the GraphPad PRISM software (GraphPad, Version 5.00, San Diego, CA).
Association constants (Ka) were calculated from dissociation constants (Kd). Scatchard lines represented in the Scatchard plots were calculated from the data fitting to the binding equations (x = 0, y = Fmax/Kd; x = Fmax , y = 0; slope = -Ka). […]

The subject of assay [1] is ALT (telomerase negative human lung fibroblast). Nature of the assay: SRB short-term cytotoxicity assay, ALT. The assay is classed as cell-based. The conditions noted are these: 96 h. On the procedure: Short-term anti-proliferative assays were carried out by two different assays using a panel of human cancer and non-malignant human cell lines. […] The transformed human embryonic kidney cell line HEK293T (wt KRAS) was sensitive to all tested drugs, including TMPyP4, a cationic porphyrin established as a G4 ligand, as well as the anticancer drug 5-fluorouracil (5-FU).
Human cell lines, breast carcinoma (MCF7), lung carcinoma (A549), pancreatic cancer (MIA PaCa2, Panc-1), immortalised telomerase-negative human lung fibroblast (ALT) and normal human lung fibroblast (WI-38), were all purchased from American Type Cell Culture (ATCC). Cell lines were maintained in appropriate medium supplemented with 10% fetal bovine serum (Invitrogen, UK), 2 mM L-glutamine (Invitrogen, Netherlands), and other components as specified by the suppliers. All cell lines were maintained at 37°C, 5% CO2, and routinely passaged. Short-term growth inhibition was measured using the SRB assay as described previously[43] (additional details described in Supplementary Information). […]
Sulforhodamine B (SRB) short-term cytotoxicity assay
Cells were seeded at appropriate densities into the wells of 96 well plates in their corresponding medium and incubated overnight to allow the cells to attach. Subsequently cells were exposed to various concentrations of freshly made solutions of drugs and incubated for 96 h. The cells were subsequently fixed with ice-cold trichloacetic acid (TCA) (10%, w/v) for 30 min and stained with 0.4% SRB dissolved in 1% acetic acid for 15 min.
All incubations were carried out at room temperature except for TCA fixation, which was at 4 °C. […]
After electrophoretic transfer onto nitrocellulose membranes, immunoblots were blocked with 5% milk solution, and next incubated overnight at 4 °C with primary mouse monoclonal antibody reactive to KRAS/p53 (#sc-30/sc-126; Santa Cruz Biotechnology Inc., Santa Cruz, CA, USA). […] Steady-state protein levels were expressed as mean ±SEM from at least three independent experiments.

As usually defined, the pIC50 is the negative decadic logarithm of the IC50, by convention in mol/L. The low end stands for a high IC50, the high end for a low IC50. Turning to `Cn1cc2c3ccccc3nc-2c2cc(Br)ccc21` [2a, 2-bromo-5-methyl-indolo[3,2-c]quinoline], the “Apparent association constant Ka (KRAS21R)” value in the assay on KRAS21R G4 is 1.7 × 10^6 M^−1 and 1.7/-- × 10^6 M^−1. In assay [1], this compound gave a pIC50 of 5.32.

`CCN(CC)CCCNc1ccc2c(c1)c1[nH]c3ccccc3c1c[n+]2C` [2d]: in the assay on KRAS21R G4, the “Apparent association constant Ka (KRAS21R)” value was 4.4e+06 M⁻¹ and the “Hill constant h (KRAS21R)” value is 2.0. In addition, the pIC50 in assay [1] is 5.71.

Take `CCN(CC)CCCNc1ccc2c(c1)[nH]c1c2c[n+](C)c2ccc(NCCCN(CC)CC)cc12.[Cl-]` [3e]: in the assay on KRAS21R G4, the “Apparent association constant Ka (KRAS21R)” value was determined as 8.6e+06 M⁻¹ and the “Hill constant h (KRAS21R)” value is listed as 2.4. In assay [1], this compound showed a pIC50 of 5.15.
